Converted amounts (≈) assume the structure as drawn. Where a name gives a salt, the structure may show the parent alone.
Each compound was assayed on HL-60 (assay: Inhibition of cell adhesion of human HL-60 cells to human LPS-stimulated HUVEC cells incubated for 4 hrs with HUVEC cells followed by MTT-labeled HL-60 cells addition measured after 40 mins by absorbance based microplate reader analysis). Conditions: not given.
Type: functional

Compound	IC50 [µM]
C=C1COC(OC)[C@@]12C[C@H]1C[C@H](O)C[C@H](C)[C@@]1(C)C2 (stereo partly specified)	11.5
C=C(CO)[C@]1(O)[C@@H](O)[C@@]2(C)[C@H](CCC[C@@H]2C)C[C@@H]1O	20.7
C=C(CO)[C@@]1(O)[C@@H](O)[C@@]2(C)[C@H](CCC[C@@H]2C)C[C@@H]1O	15.6

Each compound was assayed against Tyrosine-protein phosphatase non-receptor type 2 (Homo sapiens, UniProt P17706) (assay: Inhibition of recombinant human TCPTP expressed in Escherichia coli using p-nitrophenyl phosphate as substrate preincubated for 15 mins followed by substrate addition measured after 60 mins by absorbance based assay). Conditions: not given.
Tyrosine-protein phosphatase non-receptor type 2, sequence (P17706 whole entry): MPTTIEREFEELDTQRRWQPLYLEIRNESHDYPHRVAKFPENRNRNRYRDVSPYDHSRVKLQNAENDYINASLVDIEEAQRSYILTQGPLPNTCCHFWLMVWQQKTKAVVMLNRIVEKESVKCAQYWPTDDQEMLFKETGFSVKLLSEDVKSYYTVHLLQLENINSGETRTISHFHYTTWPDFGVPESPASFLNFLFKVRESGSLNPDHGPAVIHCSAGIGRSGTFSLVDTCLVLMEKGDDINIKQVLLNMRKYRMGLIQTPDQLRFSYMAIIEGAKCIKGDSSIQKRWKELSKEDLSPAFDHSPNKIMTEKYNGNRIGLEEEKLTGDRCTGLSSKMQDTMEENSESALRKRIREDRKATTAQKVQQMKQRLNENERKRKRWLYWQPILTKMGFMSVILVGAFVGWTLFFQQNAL

Compound	IC50 [µM]
CC(C)(O)[C@H]1OC2CC[C@@]3(C)[C@@](O)(CC[C@H]4C[C@]5(OCNc6ccccc65)C(=O)[C@@]43C)C2=CC1=O (stereo partly specified)	1.7

These compounds were tested on MCF7 (assay: Antitumor activity against Adriamycin-resistant human MCF7 cells xenografted in athymic nude BALB/c mouse assessed as tumor growth inhibition at 5 mg/kg, iv measured every 4 days for 40 days by caliper method relative to control). Conditions: MCF7, 960 h, time 40 day, read-out: TGI.
Type: functional

Compound	inhibition in vivo at 5 mg/kg [%]
COc1cccc2c1C(=O)c1c(O)c3c(c(O)c1C2=O)C[C@@](O)(C(=O)CO)C[C@@H]3O[C@H]1C[C@H](N)[C@H](O)[C@H](C)O1 [DOXORUBICIN HYDROCHLORIDE]	46

The compounds below were run on RAW264.7 (assay: Antiinflammatory activity in LPS-stimulated mouse RAW264.7 cells assessed as inhibition of NO production incubated for 2 hrs followed by LPS stimulation measured after 48 hrs […]). Conditions: not given.
Type: functional, cell-based

Compound	IC50 [µM]
C=C1[C@@H](OC(C)=O)[C@H]2[C@]3(C)[C@H]4CC(=O)C(C)(C)[C@]43C(=O)[C@]3(O)OC4=C(C)OC(=O)[C@@]1(C)[C@]4(C(=O)OC)[C@]23C	13.4
C=C1[C@@H](OC(C)=O)[C@@H]2[C@](C)(C(=O)C(O)=C3C(C)(C)C(=O)CC[C@]32C)[C@]2(C(=O)OC)C(=O)[C@@H](C)OC(=O)[C@]12C	13.4
COc1ccc2c(c1)c(CC(=O)O)c(C)n2C(=O)c1ccc(Cl)cc1 [INDOMETHACIN]	24
C=C1[C@@H](OC(C)=O)[C@@H]2[C@](C)(C(=O)C(O)=C3C(C)(C)C(=O)C=C[C@]32C)[C@]2(C(=O)OC)C(=O)[C@@H](C)OC(=O)[C@]12C	13.4

These compounds were tested against Platelet-activating factor receptor (Homo sapiens, UniProt P25105) (assay: Antagonist activity at PAFR (unknown origin)). Conditions: not given.
Platelet-activating factor receptor, sequence (P25105 whole entry): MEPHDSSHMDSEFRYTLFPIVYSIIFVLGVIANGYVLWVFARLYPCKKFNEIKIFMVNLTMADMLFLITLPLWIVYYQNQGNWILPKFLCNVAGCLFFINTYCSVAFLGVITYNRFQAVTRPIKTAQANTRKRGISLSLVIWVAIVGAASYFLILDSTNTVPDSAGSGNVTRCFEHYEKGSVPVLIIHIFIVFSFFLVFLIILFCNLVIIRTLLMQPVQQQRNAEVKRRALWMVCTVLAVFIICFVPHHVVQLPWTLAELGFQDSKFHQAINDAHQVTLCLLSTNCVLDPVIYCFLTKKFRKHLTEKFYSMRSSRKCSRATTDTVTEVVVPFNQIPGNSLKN
Type: functional

Compound	IC50 [µM]
C=C1C2=CC[C@@H](C)[C@@]1(C)CC/C(C)=C/CC[C@H]1O[C@@H]1C2=O	2.5
C/C1=C\CC[C@@H]2O[C@H]2C(=O)C2=CC[C@@H](C)[C@@](C)(C[C@@H]1O)[C@@H]2C	2.8
C/C1=C\CC[C@]2(C)O[C@@H]3C[C@@H](C)[C@@](C)(CC1)C1=C3[C@](O)(OC1)[C@H]2O	2.8
C[C@@H]1[C@@H](O)C=C2C(=O)[C@H]3O[C@@]3(C)CCC[C@H]3O[C@@]3(C)C[C@]1(C)[C@@]2(C)O	2.8
C=C1C2=CC[C@@H](C)[C@]1(C)CC[C@]1(C)O[C@H]1CC[C@@]1(C)O[C@@H]1C2=O	2.8
C[C@@H]1CC=C2C(=O)[C@H]3O[C@]3(C)CC[C@@H]3O[C@@]3(C)CC[C@@]1(C)[C@@]2(C)O	2.8
C[C@@H]1CC=C2C(=O)[C@H]3O[C@]3(C)CC[C@@H]3O[C@@]3(C)CC[C@@]1(C)[C@@H]2C	2.8

These compounds were tested on Mycolicibacterium smegmatis (assay: Antibiofilm activity against Mycobacterium smegmatis assessed as inhibition of biofilm formation incubated for 4 days). Conditions: 96 h, time 4 day.
Type: functional

Compound	MIC [µg/mL]
CC(C)=C/C=C\[C@H](C)[C@H]1CC[C@]2(C)C[C@@H]3C(C)=CC(=O)[C@@H]3/C(C=O)=C\C[C@@H]12	6.23 (≈ 17 µM)
CC(C)=C/C=C\[C@H](C)[C@H]1CC[C@]2(C)C[C@H]3[C@H](C(=O)C[C@@]3(C)O)/C(C=O)=C\C[C@@H]12	25 (≈ 64.9 µM)

Each compound was assayed on Panel NCI-60 (60 carcinoma cell lines) (assay: Cytotoxicity against human Panel NCI-60 (60 carcinoma cell lines) assessed as cell growth inhibition). Conditions: not given.
Type: functional, cell-based

Compound	IC50 [µM]
C[C@H]1CC[C@@]23C1=C[C@@]1(C)CC[C@](C)(C[C@H](O)C(=O)[C@@](C)(O)CO)[C@H]1[C@@H]2CC[C@@H]3C	18
C[C@H]1C[C@@H](O)[C@@]23C1=C[C@@]1(C)CC[C@](C)(C[C@H](O)[C@H](O)C(C)(C)O)[C@H]1[C@@H]2CC[C@@H]3C	18
C[C@H]1C[C@@H](O)[C@@]23C1=C[C@@]1(C)CC[C@](C)(C[C@H](O)[C@H](O)[C@@](C)(O)CO)[C@H]1[C@@H]2CC[C@@H]3C	18
C[C@H]1CC[C@@]23C1=C[C@@]1(C)CC[C@](C)(C[C@H](O)[C@H](O)[C@@](C)(O)CO)[C@H]1[C@@H]2CC[C@@H]3C	18
C[C@H]1CC[C@@]23C1=C[C@@]1(C)CC[C@](C)(C[C@H](O)[C@H](O)C4(C)CO4)[C@H]1[C@@H]2CC[C@@H]3C (stereo partly specified)	18
C[C@H]1CC[C@@]23C1=C[C@@]1(C)CC[C@](C)(C[C@H](O)[C@H](O)C(C)(C)O)[C@H]1[C@@H]2CC[C@@H]3C	18
C[C@H]1CC[C@@]23C1=C[C@@]1(C)CC[C@](C)(C[C@H](O)[C@H](O)[C@@](C)(O)CO)[C@H]1[C@@H]2C[C@@H](O)[C@@H]3C	18

What follows are compounds tested against Tyrosine-protein phosphatase non-receptor type 1 (Homo sapiens, UniProt P18031) (assay: Inhibition of recombinant human PTP1B expressed in Escherichia coli using p-nitrophenyl phosphate as substrate preincubated for 15 mins followed by substrate addition measured after 60 mins by absorbance based assay). Conditions: not given.
Tyrosine-protein phosphatase non-receptor type 1, sequence (P18031 whole entry): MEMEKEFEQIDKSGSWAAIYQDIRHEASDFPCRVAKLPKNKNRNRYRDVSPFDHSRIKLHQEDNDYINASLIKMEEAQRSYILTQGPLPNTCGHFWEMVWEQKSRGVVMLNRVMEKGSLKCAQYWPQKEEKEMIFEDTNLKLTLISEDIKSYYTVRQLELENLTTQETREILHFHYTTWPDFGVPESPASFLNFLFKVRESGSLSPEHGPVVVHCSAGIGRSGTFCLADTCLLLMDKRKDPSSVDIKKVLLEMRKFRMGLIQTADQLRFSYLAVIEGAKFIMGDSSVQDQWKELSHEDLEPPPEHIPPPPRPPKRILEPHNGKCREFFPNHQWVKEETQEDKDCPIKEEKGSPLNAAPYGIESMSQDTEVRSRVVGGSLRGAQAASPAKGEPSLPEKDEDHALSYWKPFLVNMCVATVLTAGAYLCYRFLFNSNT

Compound	IC50 [µM]
CC(C)(O)[C@H]1OC2CC[C@@]3(C)[C@@](O)(CC[C@H]4C[C@]5(OCNc6ccccc65)C(=O)[C@@]43C)C2=CC1=O (stereo partly specified)	1.7

From ChEMBL document CHEMBL5104094, “Chemistry, biosynthesis and biological activity of terpenoids and meroterpenoids in bacteria and fungi isolated from different marine habitats” (Eur J Med Chem, 2021)
